The text below walks through data of US12329780B2, “Acute and chronic mitochondrial electron transport chain dysfunction treatments and graphenic materials for use thereof” (WILLIAM MARSH RICE UNIVERSITY, priority 2017, dated 2025).

The target of data set [1] is ferricytochrome C (CytCox) (Homo sapiens, UniProt P99999). The experiment in a line: ETS kinetics: reduction of ferricytochrome C by NADH. The format is biochemical. The conditions noted are these: 4 mg/L catalyst, CytCox 40 μM, NADH 0-5 mM.
Chain of ferricytochrome C (CytCox) (P99999 whole entry): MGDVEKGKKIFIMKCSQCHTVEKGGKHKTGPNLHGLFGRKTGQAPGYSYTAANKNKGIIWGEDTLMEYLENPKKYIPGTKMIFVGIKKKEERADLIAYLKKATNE
A short description of data set [2]: Midpoint reduction potential. The format is physicochemical. From the text:
PEG-HCCs and MB are electrochemically similar with respect to midpoint reduction potentials of +11 mV and ˜0 mV respectively, although PEG-HCCs have a much broader range. PEG-HCCs appear to have similar effects on the electron transport chain as described for MB.

In data set [3] the test system is bEnd0.3 murine cerebrovascular endothelial cells. The experiment in a line: Hydrogen peroxide challenge assay in bEnd.3 cells (Calcein AM live cell counts). The conditions noted are these: MB 0, 5, 10 and 20 μM, with or without 100 μM H2O2. The format is cell-based. As for the experimental part: The differential properties of MB and PEG-HCCs were tested by using a hydrogen peroxide challenge assay in cultured cells. Hydrogen peroxide exerts toxic effects on endothelial cells through at least four routes: hydroxyl and superoxide radical formation by reacting with reduced species, nitric oxide synthase (NOS) and NADPH oxidase (NOX) stimulation and uncoupling, modulation of mitochondrial permeability, and the Fenton reaction. This employs administering the test agent after the hydrogen peroxide since efficacy under post-injury conditions would be critical for clinical translation.
PEG-HCCs and MB were compared in two standard hydrogen peroxide challenge assays. In the first experiment, bEnd0.3 murine cerebrovascular endothelial cells were treated with PEG-HCCs, and 100 μM H2O2 with and without 8 mg/L PEG-HCCs. The cells were incubated overnight and then then detached and counted using a hemocytometer and Calcein AM to label live cells. (Live cell counts n=32).
A similar assay was performed with MB at 0, 5, 10 and 20 μM given 15 minutes after initial exposure to 100 μM H2O2. […] The inclusion of 100 μM H2O2 further reduced survival.

The nature of data set [4]: Deferoxamine degradation in solution by 262 nm UV absorbance. The format is physicochemical. From the text: FIG. 12 is a graph in which Y-axis is units of deferoxamine remaining in solution through monitoring of the 262 nm absorbance by UV spectroscopy. Trend line 1203 illustrates deferoxamine degradation in PBS solution (DEF/PBS). Trend line 1201 illustrates the degradation of deferoxamine in a PBS solution and dilute PEG-HCC (DEF/PEG). Trend line 1202 illustrates deferoxamine degradation in a PBS that had nitrogen gas bubbled through it (DEF/N2).
An additional advantage of this formulation is that it prevents the oxidative breakdown of the deferoxamine molecule, likely through an interaction with the antioxidant capacity of the parent nanomaterial (FIG. 12). This is a tremendous advantage clinically because current deferoxamine has a short shelf life when prepared for intravenous administration, which could be dramatically extended through this formulation and thereby be useful for settings other than the hospital, such as in a battle field, automobile trauma, or other setting in which tissue injury must be rapidly treated.

For data set [5] the following is noted: administered intravenously by itself; cited from earlier work.

Turning to `CN(C)c1ccc2nc3ccc(=[N+](C)C)cc-3sc2c1` [MB, Methylene blue], in data set [1], the maximal velocity (Vmax) came to 1.432e-07 M/s. Further, in data set [2], the Midpoint reduction potential is listed as ~0 mV. Besides, the Cell survival result in data set [3] was “dose-dependent reduction in cell survival”.
For the molecule `CC(=O)N(O)CCCCCNC(=O)CCC(=O)N(O)CCCCCNC(=O)CCC(=O)N(O)CCCCCN` [deferoxamine], the “Deferoxamine degradation in solution” value in data set [4] (PBS solution with dilute PEG-HCC (DEF/PEG)) and in data set [4] (PBS with nitrogen gas bubbled through (DEF/N2)) was “no detectable degradation” throughout. For the same molecule, the “Half-life in circulation (t1/2)” value in data set [5] is “≈ 0.3 h”.
